From ChEMBL document CHEMBL1127398, “(-)-11-Hydroxy-7'-isothiocyanato-1',1'-dimethylheptyl-delta 8-THC: a novel, high-affinity irreversible probe for the cannabinoid receptor in the brain” (J Med Chem, 1994)

Target: Cannabinoid receptor (Rattus norvegicus, UniProt Q9QZN9+P20272)
Assay: Tested for affinity of compound against cannabinoid receptor in rat forebrain membranes
Assay type: cell membranes, Membrane

| SMILES | IC50 |
| --- | --- |
| CC1=CC2c3c(O)cc(CCCCN=[N+]=[N-])cc3OC(C)(C)[C@H]2CC1 (some centres not stated) | 31 nM |
| CCc1cc(C(C)(C)CCCCCCN=C=S)cc2c1[C@@H]1CC(CO)=CC[C@H]1C(C)(C)O2 | 1.6 nM |
